Experimental data: patent publication US10179761B2, “Compounds, pharmaceutical composition and their use in treating neurodegenerative diseases” (UNIVERSITE DE LILLE 2 DROIT ET SANTE, priority 2014, dated 2019)

Tests used:
σ1 receptors = σ1 receptors (Homo sapiens (Human), UniProt Q99720); experiment: σ1 binding assay, Jurkat cell membranes, [3H](+)-pentazocine; details: hydrochloride salts; mean of 2 or 3 independent experiments; Ki from IC50 (Cheng-Prusoff); read-out: Sigma 1 Ki
Male Swiss mice [1] = experiment: Dizocilpine-induced learning deficits: spontaneous alternation in the Y-maze; format: in vivo
Procedure: (§1) The activity of compound 3.1.10 was evaluated on the prevention of the dizocilpine-induced learning deficits measured using two behavioral tests. The present experiment tested if its anti-amnesic activity could be blocked by pretreatment with the reference sigma-1 receptor antagonist NE-100.
(§2) • Sixty (60) mice were used. Behavioral testing started one week after the arrival of the animals in the AMYLGEN animal facility. • 5 treatment groups were designed and used as follows:
(§3) • Vehicle 1 was physiological saline for dizocilpine, DMSO 2% in water for compound 3.1.10 • Animals were used at day 1 in the Y-maze test and at days 2 and 3 in the passive avoidance test, with training at day 2 and retention at day 3. • Test compounds, compound 3.1.10 and/or NE-100 were administered 10 min before dizocilpine (at 0.15 mg/kg i.p.) or vehicle. • Dizocilpine or vehicle 1 was administered 20 min before the Y-maze test session on day 1. • Dizocilpine or vehicle 1 was administered 20 min before the passive avoidance training session on day 2. Drugs were not injected before the retention session on day 3. • The whole experiment program was performed in a single serie experiment. • Treatments were randomized. 2.1.2. Animals
Male Swiss mice, 6 weeks old and weighing 30-35 g, from JANVIER (Saint Berthevin, France), were housed in groups with access to food and water ad libitum, except during experiments. They were kept in a temperature and humidity controlled animal facility on a 12 h/12 h light:dark cycle (lights on at 7:00 am). […]
Animals were tested for spontaneous alternation performance in the Y-maze, an index of spatial working memory. […] The number of maximum alternations was therefore the total number of arm entries minus two and the percentage of alternation was calculated as: (actual alternations/maximum alternations)×100. […]
All values, except passive avoidance latencies, were expressed as mean±S.E.M. Statistical analyses were performed using two-way ANOVA (F value), with genotype and peptide treatment as independent factors, followed by a Dunn's post-hoc multiple comparison test.

Male Swiss mice [2] = experiment: Dizocilpine-induced learning deficits: step-through passive avoidance test; format: in vivo
Procedure: as §1, §2, §3
Male Swiss mice, 6 weeks old and weighing 30-35 g, from JANVIER (Saint Berthevin, France), were housed in groups with access to food and water ad libitum, except during experiments. […]
The apparatus is a two-compartments (15×20×15 cm high) box with one illuminated with white polyvinylchloride walls and the other darkened with black polyvinylchloride walls and a grid floor. […] The step-through latency (the latency spent to enter the dark compartment) and the number of vocalizations was recorded. […] The step-through latency was recorded up to 300 s. When the mouse entered the dark compartment or 300 s has elapsed (they were therefore manually placed in it), the escape latency (latency to exit from the dark compartment) was recorded up to 300 s.
They were therefore analyzed using a Kruskal-Wallis non-parametric ANOVA (H value), followed by a Dunn's multiple comparison test.

σ2 receptors = σ2 receptors (Homo sapiens (Human), UniProt Q5BJF2); experiment: σ2 binding assay, Jurkat cell membranes, [3H]-DTG in presence of (+)-pentazocine; details: hydrochloride salts; mean of 2 or 3 independent experiments; Ki from IC50 (Cheng-Prusoff); read-out: Sigma 2 Ki
Procedure: The σ binding assays were performed according to Ganapathy et al. (Ganapathy, M. E.; Prasad, P. D.; Huang, W.; Seth, P.; Leibach, F. H.; Ganapathy, V. Molecular and ligand-binding characterization of the sigma-receptor in the Jurkat human T lymphocyte cell line. J. Pharmacol. Exp. Ther. 1999, 289, 251-260). […] The σ2 binding assay was performed by incubating Jurkat cell membranes ([…] protein per tube) with [^3H]-DTG (25 nM) in presence of (+)-pentazocine (1 μM) to saturate σ1 receptors, and a range of concentrations of tested compounds, at room temperature for 1 hour in 5 mM Tris/HCl buffer (pH=7.4). The final assay volume was 0.5 mL. Binding was terminated by rapid filtration through Wathman GF/B filters, which were then washed with 5×1 mL ice-cold NaCl solution and allowed to dry before bound radioactivity was measured using liquid scintillation counting. Nonspecific binding was determined, in both assays, under similar conditions, but in presence of 10 μM unlabeled haloperidol. Inhibition constants (Ki) were calculated from the IC50 values according to the method of Cheng and Prusoff (Cheng, Y.; Prusoff, W. H. Relationship between the inhibition constant (Ki) and the concentration of inhibitor which causes 50 percent inhibition (IC50) of an enzymatic reaction. Biochem Pharmacol. 1973, 22 (23), 3099-108): […]

[3] = 0.5 mg/kg i.p., 10 min before dizocilpine 0.15 mg/kg i.p.
[4] = 3.1.10 0.5 mg/kg + NE-100 3 mg/kg + dizocilpine 0.15 mg/kg i.p.

Chain of σ1 receptors (Q99720 whole entry): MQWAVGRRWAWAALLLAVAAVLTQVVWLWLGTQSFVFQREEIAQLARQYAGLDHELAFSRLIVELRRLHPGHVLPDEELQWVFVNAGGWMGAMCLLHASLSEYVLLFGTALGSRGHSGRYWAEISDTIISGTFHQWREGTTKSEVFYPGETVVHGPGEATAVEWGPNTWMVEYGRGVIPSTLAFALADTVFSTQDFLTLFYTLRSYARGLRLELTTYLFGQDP
Chain of σ2 receptors (Q5BJF2 whole entry): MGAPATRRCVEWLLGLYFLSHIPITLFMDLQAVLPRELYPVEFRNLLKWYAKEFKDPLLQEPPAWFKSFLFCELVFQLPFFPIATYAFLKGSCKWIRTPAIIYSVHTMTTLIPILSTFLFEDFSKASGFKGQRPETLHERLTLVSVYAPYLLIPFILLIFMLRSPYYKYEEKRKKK

SMILES: CN(CCCNC(=O)c1ccc(Cl)cc1)Cc1ccccc1 [Compound 3.1.10, N-[3-(benzylmethylamino)propyl]-4-chlorobenzamide]
- Ki (σ1 receptors): 0.0032 µM
- dizocilpine-induced learning deficits, Y-maze test (Male Swiss mice [1]; [3]): significantly attenuated
- beneficial effect of compound 3.1.10 with NE-100, Y-maze test (Male Swiss mice [1]; [4]): prevented by treatment with the sigma-1 antagonist NE-100
- dizocilpine-induced learning deficits, passive avoidance test (Male Swiss mice [2]; [3]): significantly attenuated
- beneficial effect of compound 3.1.10 with NE-100, passive avoidance test (Male Swiss mice [2]; [4]): prevented by treatment with the sigma-1 antagonist NE-100
- Ki (σ2 receptors): 0.19 µM
